Laboratory results as given in patent US20120214775A1, “Pharmaceutical Salts of 3-O-(3',3'-Dimethylsuccinyl) Betulinic Acid” (priority 2004, published 2012).
≈ marks a conversion by molar mass, not a printed value. Entries after “also recorded” stand apart in the source; their conditions may differ. Counter-ions that a name gives are not always drawn. Like-named read-outs stand apart in the source and are kept apart here.

Experiments:
[1] = tested on: HIV-1 replication in H9 lymphocyte cells; conditions: cited from earlier work; for therapeutic index (T.I.) / EC50: H9 lymphocyte cells; for T.I.: acutely infected H9 lymphocytes
[2] = tested on: HIV-1 NL4-3; experiment: In vivo anti-HIV efficacy in the SCID-hu Thy/Liv mouse model of HIV infection; conditions: for implant p24: untreated 440; for antiviral activity against NL4-3 (in words): twice-daily oral gavage at 100 and 150 mg/kg/day, SCID-hu Thy/Liv mice
[3] = Equilibrium solubility in selected solvents; conditions: for solubility thermodynamic at 7 days: organic solvent or mixture, equilibration 7 days
[4] = 25° C.
[5] = physchem; conditions: 25 °C
[6] = physchem; conditions: thermodynamic from solid, Equilibrium solubility
[7] = Intravenous administration of DSB in rats (reference for bioavailability); type: in vivo; conditions: rat, plasma, dose 10.4 mg/kg, read-out: AUCINF after intravenous administration
Method: Blood samples were collected by cardiac puncture (n=2 rats/formulation/time point) at the following times: 0.25, 0.5, 1, 2, 4, 6, 12, and 24 h. Bioavailabilities of the oral formulations were calculated as the ratio of the oral dose-adjusted AUCINF assuming proportionality of the dose adjustments to the dose adjusted AUCINF reported after intravenous administration (AUCINF=63.3 μg h/mL) from a study of DSB in rats.

[8] = Water solubility (summary statement); type: physicochemical
[9] = once-daily oral gavage at 100 mg/kg/day
[10] = highest dosage level (150 mg/kg/day), twice-daily oral gavage

## CC(C)[C@@H]1CC[C@]2(C(=O)O)CC[C@]3(C)C(CCC4[C@@]5(C)CC[C@H](O)C(C)(C)C5CC[C@]43C)C12 (stereo partly shown) [dihydrobetulinic acid]
[1]
  therapeutic index (T.I.): 14
[1]; unit inferred, read-out: EC50, anti-HIV activity
  EC50: 0.9 µM

## Nc1ccn([C@@H]2CS[C@H](CO)O2)c(=O)n1 [Group 3TC, lamivudine, reference compound]
[2]; [9]
  HIV-1 RNA reduction versus untreated mice: 96%
  thymocyte viability (live thymocytes): 71%
  implant p24: 35 pg p24 per 10^6 cells
[2]; once-daily oral gavage at 100 mg/kg/day (positive control)
  p24 reduction versus untreated mice: 97%

## CC(C)C1CCC2(C(=O)O)CCC3(C)C(CCC4C5(C)CCC(OC(=O)CC(C)(C)C(=O)O)C(C)(C)C5CCC43C)C12 (stereo not shown) [dihydrobetulinic acid analog]
[1]
  T.I.: more than 400,000

## C=C(C)[C@@H]1CC[C@]2(C(=O)O)CC[C@]3(C)[C@H](CC[C@@H]4[C@@]5(C)CC[C@H](OC(=O)CC(C)(C)C(=O)O)C(C)(C)[C@@H]5CC[C@]43C)[C@@H]12 [DSB-(NmG)2, di-(N-methyl-D-glucamine) salt of 3-O-(3′,3′-dimethylsuccinyl) betulinic acid]
[3]; Deionized Water, equilibration 3 days
  Equilibrium solubility: >18000 µg/mL
[3]; aqueous buffer, thermodynamic from solid, Equilibrium solubility, 1% DMSO in HERG Buffer, equilibration 3 days
  solubility thermodynamic at 3 days: 87.1 µg/mL
[3]; aqueous buffer, thermodynamic from solid, Equilibrium solubility, HERG Buffer, equilibration 3 days
  solubility thermodynamic at 3 days: 17.8 µg/mL
[3]; thermodynamic from solid, Equilibrium solubility, Ethanol, solid may have precipitated on transfer
  solubility thermodynamic at 7 days: 25000 µg/mL
[3]; thermodynamic from solid, Equilibrium solubility, Methanol
  solubility thermodynamic at 7 days: 37000 µg/mL
[3]; thermodynamic from solid, Equilibrium solubility, PEG 400, compound may have precipitated on removal from water bath
  solubility thermodynamic at 7 days: 5120 µg/mL
[3]; thermodynamic from solid, Equilibrium solubility, Propylene glycol
  solubility thermodynamic at 7 days: > 255000 µg/mL
[3]; saline or isotonic, thermodynamic from solid, Equilibrium solubility, PSS (physiological salt solution), equilibration 3 days
  solubility thermodynamic at 3 days: 80.2 µg/mL
[3]; saline or isotonic, thermodynamic from solid, Equilibrium solubility, PSS + 0.1% DMSO, equilibration 3 days
  solubility thermodynamic at 3 days: 108 µg/mL
[3]; saline or isotonic, thermodynamic from solid, Equilibrium solubility, PSS + 1% DMSO, equilibration 3 days
  solubility thermodynamic at 3 days: 108 µg/mL
[3]; water, thermodynamic from solid, Equilibrium solubility, Deionized Water, equilibration 3 days
  solubility thermodynamic at 3 days: > 18000 µg/mL
[3]; water, thermodynamic from solid, Equilibrium solubility, Deionized Water, equilibration 4 days
  solubility thermodynamic at 4 days: > 7000 µg/mL
[4]; basic and neutral conditions
  visual solubility: visibly soluble
[4]; strongly acid solutions
  visual solubility: visually insoluble
[5]; pH 9.461, aqueous buffer
  solubility: 7540 µg/mL
[5]; pH 10.691, aqueous buffer
  solubility: 7460 µg/mL
[2]; 100 mg/kg/day, twice-daily oral gavage
  implant p24: 69 pg p24 per 10^6 cells
[2]; [10]
  HIV-1 RNA reduction versus untreated mice: 97%
  implant p24: 14 pg p24 per 10^6 cells
[2]; highest dosage level (150 mg/kg/day), untreated 530
  MHC-I expression on CD4+CD8+ thymocytes: 250 mean fluorescence intensity
[2]; highest dosage level (150 mg/kg/day, started at 300), twice-daily oral gavage, 22 days, Thy/Liv implant
  p24 reduction versus untreated mice: 99%
[2]
  antiviral activity against NL4-3 (in words): potent, dose-dependent antiviral activity; also recorded: potent in vivo inhibitor of HIV-1 replication
[2]; listed as DSG-(NmG)2
  antiviral activity against NL4-3 (in words): potent in vivo inhibitor of HIV-1 replication

## CC(=O)[C@@H]1CC[C@]2(C(=O)O)CC[C@]3(C)[C@H](CC[C@@H]4[C@@]5(C)CC[C@H](O)C(C)(C)[C@@H]5CC[C@]43C)[C@@H]12 [platanic acid]
[1]
  therapeutic index (T.I.): 14
[1]; read-out: EC50, inhibitory activity against HIV-1 replication
  EC50: 6.5 µM

## C=C(C)[C@H]1CC[C@]2(C(=O)O)CC[C@@]3(C)[C@H](CC[C@H]4[C@@]5(C)CC[C@H](OC(=O)CC(C)(C)C(=O)O)C(C)(C)[C@H]5CC[C@]43C)[C@H]12 [DSB, 3-O-(3′,3′-dimethylsuccinyl) betulinic acid]
[6]; saline or isotonic
  solubility thermodynamic at 3 days: 1500 µg/mL (≈ 2560 µM)
[6]; water
  solubility thermodynamic at 3 days: 35.1 µg/mL (≈ 60 µM)
[7]
  AUC(0-inf): 63300 ng·h/mL
[8]
  solubility: ~100 µg/mL (≈ 171 µM)
[1]
  T.I.: more than 970,000
